Patent US12257283B2 (priority 2019, dated 2025)
Like-named read-outs stand apart in the source and are kept apart here.

Legend:
[1] = system: STZ induced diabetic rats; details: oral administration
Procedure: (§1) Rats were fasted overnight and received a single intraperitoneal injection of streptozotocin (60 mg/kg, Sigma-Aldrich) in citrate buffer (pH 4.5) to induce type I diabetes. The induction of diabetes was confirmed 72 h after streptozotocin injection by measurement of blood glucose levels using Contour® blood glucose diagnostic kit (Bayer HealthCare, Canada). Body weight and blood glucose levels were measured before and 3 days after streptozotocin injection, once a week for three weeks after diabetes induction. Only rats having blood glucose concentration consistently higher than 300 mg/dl were used for the present study.
The treatment lasted for 8 days Note, n=5 for H2O and n=7 for RAP-103/each dose.
Tactile allodynia Mechanical sensitivity was assessed using calibrated von Frey hairs (7). Animals were placed in Plexiglas boxes on an elevated metal mesh floor and allowed 60 min for habituation before testing. A series of von Frey filaments with logarithmically incrementing stiffness was applied perpendicular to the mid-plantar region of the hind paw. The 50% paw withdrawal threshold was determined using Dixon's up-down method. Withdrawal thresholds of both paws were averaged as one single value per animal. Assessment on the effects of RAP103 on mechanical and cold allodynia was performed between 2-4 hours following the drug administration. […] All data were presented as means±SEM. […]

[2] = system: streptozotocin (STZ) induced diabetic rats
Procedure: as §1, with “study. […]” for “study.”
Tactile allodynia Mechanical sensitivity was assessed using calibrated von Frey hairs (7). Animals were placed in Plexiglas boxes on an elevated metal mesh floor and allowed 60 min for habituation before testing. A series of von Frey filaments with logarithmically incrementing stiffness was applied perpendicular to the mid-plantar region of the hind paw. The 50% paw withdrawal threshold was determined using Dixon's up-down method. Withdrawal thresholds of both paws were averaged as one single value per animal. Assessment on the effects of RAP103 on mechanical and cold allodynia was performed between 2-4 hours following the drug administration. […] All data were presented as means±SEM. Statistical analysis was performed by two-way ANOVA followed by Bonferroni post-tests. The criterion for statistical significance was P<0.05.

[3] = system: MOR-dependent rats; details: 0.5 mg/kg, naloxone 3 mg/kg SC on day 7, quantified for 60 min
Procedure: Opioid tolerance during chronic exposure requires increasing opioid doses to maintain analgesic efficacy. Physical dependence also develops during chronic opioid exposure and, upon discontinuation of opioid intake, presents as a withdrawal syndrome that triggers opioid relapse. We tested the effects of RAP-103 (0.5 mg/kg) on naloxone-precipitated withdrawal signs in MOR-dependent rats. To induce physical dependence we implanted opioid (heroine) containing pellets. On day 7 rats received naloxone (3 mg/kg, SC) with or without added RAP-103 and the withdrawal signs of wet dog shakes and eye blinking were quantified for 60 min.

[4] = system: CCL2, CCL3
Source text: Because opioids are used in the management of pain conditions that contribute to OUD, we determined the efficacy of a small peptide chemokine receptor antagonist RAP-103 (all-D-TTNYT, SEQ ID #1, Table 1), sometimes called RAP-103 or R103) to reverse opioid receptor analgesic tolerance and block pain as a test of its ability to block-drug seeking behaviors. Painful diabetic neuropathy (PDN) is a common complication of diabetes which adversely affects patients' daily life, often involves opioid use, which creates an addiction risk. […] To test the hypothesis, we first used behavioral and molecular/cellular approaches to explore chronic pain development and inflammatory reaction in Streptozotocin (STZ) induced diabetic rats. […] CCL2 and CCL3 are two chemokines well known in mediating immune cell trafficking and immune response in the context of neuropathic pain.
as §1

[5] = system: cocaine induced locomotor behavior; details: rats, 0.001, 0.01, 0.03 mg/kg, p.o., 30 min before cocaine 10 mgs/Kg
Procedure: Locomotor activity (ambulation+stereotypy) induced by cocaine and the effect of RAP-103 was assessed using a Digiscan DMicro system. Following a 60-min habituation in activity chambers, rats were pretreated with RAP-103 (0.03, 0.01, 0.001 mgs/Kg) or vehicle 30 min before cocaine (10 mgs/Kg) or vehicle and activity was measured for 120 min. Differences between individual groups were determined with a Bonferroni post-hoc test. Statistical significance was set at p<0.05.

[6] = system: opioid self-administration; details: rats, MOR 0.25 mg/kg/inf
Source text: Rats were surgically prepared to have indwelling catheters prior to self-administration testing. To begin each session, house lights were turned on and two retractable levers extended into the chamber. […] A 20-s timeout period will follow each infusion to limit possibility of overdose. […] The dependent variable measured will be the number of infusions earned by the end of the session and defined as the breakpoint. Total cumulative responses made by the rat on the active lever during each session will also be recorded. Once rats reach criteria for stable PR responding, which is defined as 3 consecutive days of responding without upward or downward variance (<20% change from mean number of reinforcers earned for 3 consecutive days), R103 (0.02, 0.1, and 0.5 mg/kg) will be administered 15 min before daily SA sessions to assess effects on breaking point and to obtain dose-effect data for R103. A repeated-measures 2-way ANOVA (R103 treatment, sex) between-subjects design followed by a Bonferroni test was used.

[7] = molecular target: chemokine receptors CCR2/CCR5; format: biochemical; details: inhibition of chemokine receptors CCR2/CCR5; read-out: Potency EC50
Source text: Table 1 illustrates the potencies of several peptides of the invention to inhibit chemokine receptors CCR2/CCR5. These receptor-active peptides (Receptides, abbreviated as RAP's) represent a novel, safe and non-addictive pharmacological intervention for substance abuse disorders by normalizing the neurobiology of addiction to suppress drug-seeking behaviors, reduce psychostimulant (cocaine, methamphetamine) activation and locomotion, and inhibit consumption of alcohol, other drugs of abuse and substance abuse in general. They may also treat depression and anxiety as those commonly occur in substance abuse. […] Decades-old treatments (methadone, buprenorphine etc.) require extended use, suffer from high recidivism, are only partly effective and are clearly inadequate. New treatments with no abuse liability, that blunt drug-seeking, dependence, and facilitate recovery and withdrawal are a priority need.

[8] = system: cocaine reward; details: literature data, cited from earlier work
[9] = system: cocaine locomotor activation; details: literature data, cited from earlier work
[10] = system: cocaine taking; details: literature data; cited from earlier work
[11] = STZ diabetic rats, oral administration for 7 days

## TTNYT [SEQ ID No.: 1, all-D-TTNYT]
[1]
  cold allodynia: reversed cold allodynia
[2]; [11]
  neuropathic pain: reduced neuropathic pain
[2]; STZ induced diabetic rats, oral administration
  mechanical allodynia: reversed mechanical allodynia
[2]; STZ rats, 0.5-0.02 mg/Kg b.w., daily, for 7 days
  established hypersensitivity: complete reversal of established hypersensitivity
[3]; listed as RAP103
  naloxone precipitated withdrawal signs (wet dog shakes and eye blink): significantly inhibited naloxone precipitated withdrawal signs
[3]; listed as RAP-103
  naloxone precipitated withdrawal signs (wet dog shakes and eye blink): blocks naloxone-precipitated withdrawal signs
[4]; [11]
  expression of chemokines and cytokines: inhibited expression of chemokines and cytokines
[4]; STZ rats, 0.5 mg/kg, for 7 days, p.o., FIG. 3A
  inflammation: CCL2 in the sciatic nerves: significantly inhibited inflammation
[4]; STZ rats, 0.5 mg/kg, for 7 days, p.o., FIG. 3B
  inflammation: CCL3 in the sciatic nerves: significantly inhibited inflammation
[5]; listed as RAP103
  cocaine induced locomotor behavior (locomotor activity counts): inhibited psychostimulant cocaine induced locomotor behavior
[5]; listed as RAP-103
  cocaine induced locomotor behavior (locomotor activity counts): blocks the locomotor inducing effects of cocaine
[6]
  opioid self-administration by lever press for drug infusions: significantly inhibited opioid self-administration
[6]; R103 0.02, 0.1, and 0.5 mg/kg 15 min before sessions
  motivation to work for reinforcer (self-administer an opioid), progressive-ratio: significantly reduced

## STNYT [SEQ ID No.: 3]
[7]
  EC50: 3 pM

## COc1ccc(C2(O)CCC(N3CC[C@@H](NC(=O)CNC(=O)c4cccc(C(F)(F)F)c4)C3)CC2)cn1 (some centres unmarked) [INCB 3284]
[8]
  cocaine reward / conditioned place preference (CPP): prevented psychostimulant-induced CPP

## c1cc(CN2CCCNCCNCCCNCC2)ccc1CN1CCCNCCNCCCNCC1 [AMD3100, Plerixafor]
[8]
  cocaine reward / conditioned place preference (CPP): inhibits cocaine reward
[8]; listed as AMD 3100
  cocaine reward / conditioned place preference (CPP): inhibits conditioned place preference (CPP)
[9]; 5, 10 mg/kg pretreatment
  locomotor activation produced by an acute cocaine injection: reduced locomotor activation
[9]
  locomotor activation produced by cocaine: inhibits
[10]
  cocaine taking in rat self-administration assays: inhibits

## Maraviroc
[8]
  cocaine reward / conditioned place preference (CPP): reduces rewarding
[9]
  locomotor activation produced by cocaine: reduces

## SSTYR [SEQ ID No.: 2]
[7]
  EC50: 1 pM
